# Assay results reported in patent publication US5440031A, “1,4,10,13-tetraoxa-7,16-diazacyclooctadecane derivatives, pharmaceutical compositions containing them and their use for the removal of toxic metal ions and radioactive isotopes from living organism” (priority 1990, dated 1995).
# Entries after “also recorded” stand apart in the source; their conditions may differ.
# Tests used:
# [1] = decorporation investigations by various routes, whole-body activity and deposition in bones; assay type: in vivo, Swiss mice and Wistar rats; settings: decorporating effect; disodium salt
# Excerpt: (§1) The action of the compounds of formula (I) according to the invention, which manifests itself as an increase in the elimination of metal ions damaging the living organism, was investigated by using radioactive strontium or cerium ions on Swiss mice and Wistar rats of both sexes.
# (§2) The elimination was studied on radioactive isotopes introduced in various routes to various sites, e.g. to the blood circulation, abdominal cavity, lungs, muscles or subcutaneous connective tissue of the experimental animals. The compound increasing the elimination of the isotopes was administered daily once or two times in the form of an injection, powder or liquid aerosol or plaster to the organism of the experimental animals. Thereafter, whole body activity measurements were performed and retention curves were taken up which then were compared to the results obtained in the control group.
# The retention curves obtained were analysed on a computer. "Nonlinear Regression by the Code of BMDP-3R" (BMDP Statistical Software Manual, UCLA, Los Angeles, 1990, Chief Ed. W. J. Dixon) computer software was used for this purpose. It could be stated from the results obtained that the curves could be described by a two-component descending exponential function. Two data were calculated for characterizing the effectivity. […]
# laboratory mice and rats = assay: acute toxicity, LD50/30, injection into blood circulation, 30 days observation; assay type: in vivo, Swiss mice and Wistar rats
# Procedure: The acute toxicity values of the products prepared according to Examples 1 to 16 were determined on laboratory mice and rats in the following manner.
# Solutions containing the compounds in various concentrations were prepared by using physiological saline solution or glucose solution of 5% by weight concentration and the active agents were administered in various concentrations into the blood circulation of the animals by injecting them slowly during 3 to 5 minutes. Groups consisting of 6 to 10 animals (Swiss mice and Wistar rats of both sexes) each were used for the various dose levels. […] The LD50/30 value (i.e. the dose causing the death of 50% of the experimental animals within 30 days) was determined from the number of animals died during this period by using probit analysis/D. J. Finney: Probit Analysis (2nd ed.) Cambridge University Press (1952)/. These values expressed in mmol/kg of body-weight for the active agents according to the invention are summarized in column (B) of Table 1.
# [2] = literature; cited from earlier work
# [3] = elimination of radioactive strontium introduced through the trachea into the lungs, whole-body retention (FIG. 2); assay type: in vivo, Wistar rats
# Excerpt: FIGS. 2 & 3 show the percentages of metal ions retained in the body, plotted over 32 days after treatment with compound "b)" of example 6 at both full and double strength, referenced against an untreated control.
# a) The whole-body retention curves illustrated in FIG. 2 show the elimination of radioactive strontium introduced through the trachea into the lungs of Wistar rats after intraperitoneal (i.p.) administration of the compound described in Example 6 b). It can be seen from the pattern of the upper curve of FIG. 2 that the radioactive strontium was eliminated to a low grade from the organism of control animals treated only with the solvent. Not more than 30 to 35% of the starting activity were eliminated in the days following the inner contamination. […] The rapid elimination of the isotope was continued in the days following the treatment, and reached 88 to 90% in the once-treated group and 94 to 96% in the twice-treated group. […] The residual activity of 5 to 10% measured as whole-body retention was found in the soft parts and liver of the animals whereas the major part (65 to 70%) of the retention found in the controls were built in to the bones. Similarly advantageous results were obtained by administering the compounds according to the invention in an intravenous route or into the subcutaneous connective tissue.
# [4] = radioactive isotope elimination-increasing effect, isotope into abdominal cavity, whole-body retention; assay type: in vivo, Swiss mice
# Excerpt: as §1, §2
# The retention curves obtained were analysed on a computer. "Nonlinear Regression by the Code of BMDP-3R" (BMDP Statistical Software Manual, UCLA, Los Angeles, 1990, Chief Ed. W. J. Dixon) computer software was used for this purpose. It could be stated from the results obtained that the curves could be described by a two-component descending exponential function. Two data were calculated for characterizing the effectivity. One of these was the so-called F factor indicating the increase in the elimination in relation to the control and meaning the multiplication of the isotope elimination under effect of the test compound in relation to the untreated animals/see column (C) in Table 1/.
# For the illustrative comparison of the compounds according to the invention additional characteristic data, the so-called EI values are given which were obtained by multiplying the extent of isotope elimination as percentage related to the control group (effectivity, E) with the acute toxicity value (LD50/30, innocuous, I)/see column (D) in Table 1/. Although the EI value is numerically not identical to the therapeutic ratio (safety index), it indicates in all cases to a weak or excellent activity of a product.
# The radioactive isotope elimination-increasing effects of compounds prepared according to Examples 1 to 16 were compared on Swiss mice as described hereinafter.
# An activity of 37 to 74 kBg (1 to 2 μCi) of radioactive strontium (Sr-85Cl2) or radioactive cerium (Ce-144Cl3), respectively, was administered into the abdominal cavity of the animals which were then divided into treatment groups consisting of 5 to 10 animals each. At 30 to 60 minutes after administration of the isotope, the animals of the treated groups were intravenously (i.v.) given the active agent used in an amount to achieve s concentration of 50 to 100 μmol/kg of body-weight in the animal organism for each treatment. The animals of the control groups were similarly treated with the carrier (sterile physiological saline or glucose solution of 5% by weight concentration) without active agent.
# The amount of radioactivity introduced to the animal organism was determined immediately after administration of the isotope, thru these measurements were repeated daily or in every two the or three days in a device constructed for the purpose of the whole-body measurements on small animals. The counts observed were related to the starting activity value of the zero (0) day and a so-called retention/time correlation was obtained by considering the activity retained in the organism. The change of activity of the animal organism in the time is illustrated in FIG. 1 where the time (in days) elapsed after the treatment is shown on the abscissa and the whole-body retention as percentage is plotted on the ordinate. It can be seen that the rate of elimination of Sr-85 administered into the abdominal cavity of control animals was slow: within 1 day only 15%, within 4 days 25% and within 7 days 30% of the activity were eliminated from their organism and the elimination was even more delayed in the later period. […]
compound,measurement,setting,value
"O=C([O-])C(C(=O)[O-])N1CCOCCOCCN(C(C(=O)[O-])C(=O)[O-])CCOCCOCC1.[Ca+2].[Na+].[Na+] [N,N'-bis(dicarboxymethyl)-1,4,10,13-tetraoxa-7,16-diazacyclooctadecane calcium complex disodium salt]",effectivity (in words),[1],particularly outstanding effect; also recorded: high decorporating effectivity
same,toxicity (in words),laboratory mice and rats; in vivo,low toxicity
O=C(O)CN(CCN(CC(=O)O)CC(=O)O)CCN(CC(=O)O)CC(=O)O [diethylenetriaminepentaacetic acid],stability of calcium complexes versus strontium complexes,[2],substantially more stable than their strontium complexes
O=C(O)CN(CCN(CC(=O)O)CC(=O)O)CC(=O)O [ethylenediaminetetraacetic acid],stability of calcium complexes versus strontium complexes,[2],substantially more stable than their strontium complexes
"N,N'-bis(dicarboxymethyl)-1,4,10,13-tetraoxa-7,16-diazacyclooctadecane calcium complex disodium salt containing disodium hydroxymalonate and sodium chloride [6/b]",radioactive strontium in the bones,"[3]; animals killed at the end of the experiment, controls 65 to 70% of retention built in to the bones",hardly any or no radioactive strontium could be detected
same,"whole-body load within 1 day following the treatment, treated once","[3]; i.p., once with 50 μmol/kg, control 90%",20%
same,"whole-body load within 1 day following the treatment, treated twice","[3]; i.p., twice in 3-hour interval, control 90%",20%
same,EI value,"[4]; effectivity (isotope elimination as % related to control) multiplied by LD50/30, 0-5 weak, 5-50 medium, 50-100 good, above 100 excellent",160.00
same,F factor,"[4]; multiplication of isotope elimination relative to untreated animals, i.v. 50 to 100 μmol/kg, 30 to 60 minutes after isotope",4.2
same,Acute toxicity LD50/30,"laboratory mice and rats; dose causing death of 50% of animals within 30 days, slow injection into the blood circulation during 3 to 5 minutes, mice and rats, probit analysis",above 3.0 mmol/kg
